Structures are written as SMILES.

Common to all, as to assay type: cell-based
Data set [1] is described as follows: Cellular toxicity assay in CEM cells. Conditions: human, CEM lymphoblastoid cells, read-out: Cytotoxicity. The essentials: (§1)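 Cytotox IC50 from conc-response curve, median effective method. Cycloheximide = positive ctrl; untreated cells + solvent = negative ctrl.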
For data set [2], the system named is wild type HBV. Description: Anti-HBV assay in AD-38 cell line. Conditions: Hepatitis B virus, AD-38 cells, HBV in culture supernatant.
A short description of data set [3]: Cellular toxicity assay in human PBM cells. Conditions: human, human PBM cells, read-out: Cytotoxicity. The essentials: as §1
Data set [4] has as its system HepG2 cells. Description: Lactic acid production in HepG2 cells. Particulars: 14-day assay. As for the experimental part: To measure the effects of the compounds on lactic acid production, HepG2 cells from a stock culture were diluted and plated in 12-well culture plates at 2.5×10^4 cells per well. Various concentrations (0 μM, 0.1 μM, 1 μM, 10 μM and 100 μM) of compound were added, and the cultures were incubated at 37° C. in a humidified 5% CO2 atmosphere for 4 days. At day 4, the number of cells in each well was determined and the culture medium collected. The culture medium was then filtered, and the lactic acid content in the medium was determined using a colorimetric lactic acid assay (Sigma-Aldrich). Since lactic acid product can be considered a marker for impaired mitochondrial function, elevated levels of lactic acid production detected in cells grown in the presence of test compounds would indicate a drug-induced cytotoxic effect.
(§2) The effect of compounds 7 and 9 on the levels of mitochondrial and nuclear DNA, and lactic acid production was evaluated in HepG2 cells (14-day assay), and the data is tabulated below in Table 2: […]

The nature of data set [5]: Cellular toxicity assay in Vero cells. Particulars: African green monkey, read-out: Cytotoxicity. The essentials:
as §1

Data set [6] relates to nuclear DNA in HepG2 cells. In words: Mitochondrial toxicity assay in HepG2 cells: nuclear DNA. Conditions: Homo sapiens.
From the text: (§3) A real-time PCR assay to accurately quantify mitochondrial DNA content has been developed (see Stuyver L J, Lostia S, Adams M, Mathew J S, Pai B S, Grier J, Tharnish P M, Choi Y, Chong Y, Choo H, Chu C K, Otto M J, Schinazi R F. Antiviral activities and cellular toxicities of modified 2′,3′-dideoxy-2′,3′-didehydrocytidine analogs. Antimicrob. Agents Chemother. 2002; 46: 3854-60). This assay was used in all studies described in this application that determine the effect of compounds on mitochondrial DNA content. In this assay, low-passage-number HepG2 cells were seeded at 5,000 cells/well in collagen-coated 96-well plates. Test compounds were added to the medium to obtain final concentrations of 0 μM, 0.1 μM, 10 μM and 100 μM. On culture day 7, cellular nucleic acids were prepared by using commercially available columns (RNeasy 96 kit; Qiagen). […] The mitochondrial cytochrome c oxidase subunit II (COXII) gene and the β-actin or rRNA gene were amplified from 5 μl of the eluted nucleic acids using a multiplex Q-PCR protocol with suitable primers and probes for both target and reference amplifications. For COXII the following sense, probe and antisense primers were used, respectively: 5′-TGCCCGCCATCATCCTA-3′, 5′-tetrachloro-6-carboxyfluorescein-[…]-TAMRA-3′ and 5′-[…]-3′. For exon 3 of the β-actin gene (GenBank accession number E01094) the sense, probe, and antisense primers are 5′-GCGCGGCTACAGCTTCA-3′, 5′-6-[…]-3′ and 5′-[…]-3′, respectively. The primers and probes for the rRNA gene are commercially available from Applied Biosystems. Since equal amplification efficiencies are obtained for all genes, the comparative CT method was used to investigate potential inhibition of mitochondrial DNA synthesis. The comparative CT method uses arithmetic formulas in which the amount of target (COXII gene) is normalized to the amount of an endogenous reference (the β-actin or rRNA gene) and is relative to a calibrator (a control with no drug at day 7). The arithmetic formula for this approach is given by 2−ΔΔCT, where ΔΔCT is (CT for average target test sample CT for target control)−(CT for average reference test−CT for reference control) (see Johnson M R, K Wang, J B Smith, M J Heslin, R B Diasio. Quantitation of dihydropyrimidine dehydrogenase expression by real-time reverse transcription polymerase chain reaction. Anal. Biochem. 2000; 278:175-184). A decrease in mitochondrial DNA content in cells grown in the presence of drug indicated mitochondrial toxicity.
as §2

Data set [7] concerns mitochondrial DNA (COXII gene) in HepG2 cells. Description: Mitochondrial toxicity assay in HepG2 cells: mitochondrial DNA.
From the text: as §3, §2

What is called EC50 is the concentration giving half of the maximal effect. For orientation: EC90 means the concentration needed for an effect of 90%. As a reminder, the IC50 is the point on the concentration scale where inhibition reaches its midpoint. As usually defined, the inhibition is the share of the control response that was lost under treatment. As for `C#CCNC(=O)C(=O)c1c(C)c(C(=O)Nc2ccc(F)c(F)c2)n(C)c1C` [Compound 7a, 4-[(Propargylamino)(oxo)acetyl]-N-(3,4-difluorophenyl)-1,3,5-trimethyl-1H-pyrrole-2-carboxamide], the CC50 in data set [1] was over 100 µM; in data set [3], over 100 µM; in data set [5], over 90 µM. In data set [2] (read-out: Anti-HBV activity EC50), the EC50 was in the range of 0.001 to 0.009 µM. In addition, in data set [2] (read-out: Anti-HBV activity EC90), the EC90 fell in the range of 0.01 to 0.09 µM. The “Lactic acid production (% of control)” value in data set [4] (10 μM) is recorded as 103 ± 32.0 % of control; in data set [4] (25 μM) it was 106 ± 19.5 % of control; in data set [4] (50 μM), 193 ± 12.6 % of control. In addition, the IC50 in data set [6] (336 h, HepG2 cells, 14-day assay) was over 50 µM; in data set [7] (Homo sapiens, HepG2, 336 h, read-out: IC50 MtDNA), over 50 µM. The inhibition at 10 µM in data set [6] (336 h, HepG2 cells, 14-day assay, 10 μM, read-out: % inhibition nDNA) was 5.4%; in data set [7] (Homo sapiens, HepG2, 336 h, read-out: % inhibition MtDNA), under 1%. Further, the inhibition at 25 µM in data set [6] (336 h, HepG2 cells, 14-day assay, 25 μM, read-out: % inhibition nDNA) was under 1%. For the same compound, in data set [6] (HepG2, 336 h, read-out: % inhibition nDNA), the inhibition at 50 µM is 13.1%. Moreover, in data set [7] (human, 14 day, 10 μM), the “MtDNA (% of control)” value was 110 (100-121) % of control.

These data come from patent publication US10752584B2 (EMORY UNIVERSITY, priority 2016, dated 2020).
